Measured values taken from patent US20190183812A1, “Compounds For The Treatment Of Neuromuscular Disorders” (NMD PHARMA A/S, priority 2017, published 2019).

How the values were obtained:
[1] = molecular target: T1, human CIC-1 channels (Homo sapiens, UniProt P35523); experiment: Automated patch-clamp on human CIC-1 expressed in CHO cells; assay type: cell-based; conditions: compound added to the intracellular solution vs vehicle control patches; positive shift reflects CIC-1 inhibition
T1 construct: host or cells: CHO (Chinese hamster ovary) cells
T1 sequence (P35523 whole entry): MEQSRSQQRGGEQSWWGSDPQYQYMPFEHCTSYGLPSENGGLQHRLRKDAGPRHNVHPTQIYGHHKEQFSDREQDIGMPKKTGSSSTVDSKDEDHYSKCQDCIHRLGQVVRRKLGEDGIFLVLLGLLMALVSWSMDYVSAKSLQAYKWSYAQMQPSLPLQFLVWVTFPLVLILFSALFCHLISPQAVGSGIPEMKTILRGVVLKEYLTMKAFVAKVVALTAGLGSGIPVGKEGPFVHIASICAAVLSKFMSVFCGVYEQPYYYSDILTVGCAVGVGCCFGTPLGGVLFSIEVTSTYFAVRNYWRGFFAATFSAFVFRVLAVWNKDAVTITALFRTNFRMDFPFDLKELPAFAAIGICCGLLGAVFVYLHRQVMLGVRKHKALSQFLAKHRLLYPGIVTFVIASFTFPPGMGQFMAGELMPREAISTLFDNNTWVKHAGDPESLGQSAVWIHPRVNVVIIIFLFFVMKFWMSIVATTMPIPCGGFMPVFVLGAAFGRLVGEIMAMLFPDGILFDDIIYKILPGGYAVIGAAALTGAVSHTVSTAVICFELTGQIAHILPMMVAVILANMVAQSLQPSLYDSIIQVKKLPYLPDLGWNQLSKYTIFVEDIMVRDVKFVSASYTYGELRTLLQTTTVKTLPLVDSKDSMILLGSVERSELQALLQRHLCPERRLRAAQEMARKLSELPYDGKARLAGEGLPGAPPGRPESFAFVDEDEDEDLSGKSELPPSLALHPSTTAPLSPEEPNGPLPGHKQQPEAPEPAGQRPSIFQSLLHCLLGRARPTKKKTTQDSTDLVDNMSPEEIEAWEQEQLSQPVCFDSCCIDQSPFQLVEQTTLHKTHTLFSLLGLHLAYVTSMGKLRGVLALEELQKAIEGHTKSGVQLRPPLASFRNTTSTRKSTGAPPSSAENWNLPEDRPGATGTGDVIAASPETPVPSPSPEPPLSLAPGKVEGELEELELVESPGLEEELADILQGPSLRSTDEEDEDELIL
Method: The investigatory goal of these experiments was to evaluate how compounds affect the open probability and current amplitude of human CIC-1 channels expressed in CHO cells. Experiments were performed using an automated patch clamp system that allowed high throughput testing of whole cell patches together with both intracellular and extracellular addition of compound.
Automated whole cell patch clamp experiments were performed with the Qpatch 16 system (Sophion Bioscience, Ballerup, Denmark) at room temperature. Data acquisition and analysis were performed in the Qassay software (ver. 5.6, Odense).
To evoke CIC-1 currents in whole cell patches, the membrane potential was initially stepped from a holding potential of −30 mV to +60 mV for 100 ms and then to various test voltages (sweeps) ranging from +120 mV to −140 mV in steps of 20 mV for 300 ms. To obtain tail currents, the membrane potential was stepped to −100 mV after each test voltage for 300 ms and then relaxed to −30 mV for 2 sec between sweeps (FIG. 3). I/V relationships for whole cell instant and steady state current amplitudes were obtained by plotting average current densities at the beginning and at the end of the 300 ms step against the membrane potential (FIG. 4).
In order to determine the relative overall open probability (P0), the instantaneous tail currents were normalized to the maximal tail current obtained following the most positive voltage step and plotted against the test voltage. Plots of normalized tail currents from each whole cell patch were then fitted to a Boltzmann function allowing determination of half activation voltages (V1/2, FIG. 5).
For automated patch clamp experiments extracellular solutions contained: 2 mM CaCl2, 1 mM MgCl2, 10 mM HEPES, 4 mM KCl, 145 mM NaCl, 10 mM Glucose, pH adjusted to 7.4 with NaOH (2 M). Osmolality adjusted to ˜320 using sucrose.
Intracellular solutions contained: 80 mM CsF, 60 mM CsCl, 5/1 mM KOH/EGTA, 10 mM HEPES, 10 mM NaCl, pH adjusted to 7.2 with NaOH (2 M). Osmolality adjusted to ˜320 mOsm using sucrose.
Cells used in patch clamp experiments were Chinese hamster ovary cells (CHO) constitutively expressing human CIC-1 channels. The amino acid sequence encoded by the cDNA used to create this cell line was identical to the translated sequence for GenBank accession number NM_000083.2. Cells were produced by Charles River (Catalogue CT6175, Cleveland Ohio, USA) in a cryopreserved format. Experiments were performed on the cells directly after thawing (3×10^6 cells used in each experiment).
To evaluate the compound effect on CIC-1, when applied directly to the intracellular side of the cell membrane, the half activation voltage, V1/2, was determined from whole cell patches with compound added to the intracellular solution and then compared to V1/2 determined from control cell patches with only vehicle added to the intracellular solution. Additionally, the effect of extracellular added compound was evaluated by determine V1/2 and steady state current amplitudes before and after exchanging the extracellular solution to contain compound.
The difference in half activation voltage of CIC-1 channels, […]V1/2, was determined as the difference between the cell patches treated intracellularly with compound and control cells patches and is reported in Table 4 below. A positive shift in […]V1/2 is reflecting CIC-1 channel inhibition by the tested compound. P-values of <0.05 is considered significant.

[2] = test system: Lewis rats; experiment: In situ muscle contractile characteristics: isometric hindlimb force under cisatracurium infusion; assay type: in vivo, rat; conditions: 21.5 mg/kg i.v.; 12 Hz; 3 experiments
Method: Isometric hindlimb force was measured in 12-week old female Lewis rats in the presence and absence of compound.
Rats were placed under anesthesia with isoflurane (2-4%), intubated and subsequently connected to a micro ventilator (Microvent 1, Hallowell EMC, US). Two stimulation electrodes were inserted through the skin to stimulate the sciatic nerve. A small incision was made proximal to the ankle, to expose the Achilles tendon, which was tied by cotton string, and connected to a force transducer (Fort250, World Precision Instruments) with adjustable position (Vernier control). The Achilles tendon was then cut distal to the attached cotton string. […]
Muscle contractile properties were assessed by applying an electrical current (under supramaximal voltage conditions) to the nerve and recording the force generated by the muscle. The muscle was stretched until maximal force was obtained, when assessed by 2 Hz stimulation. Isometric force was measured every 30 seconds at 12 Hz (Twitch), 10 pulses, and at every 5 minutes at 80 Hz (Tetanic) for 1 second (80 pulses). […] The effect of test article was assessed on its ability to increase force generated from the stimulation pattern applied. The effect was assessed in the ability to increase force per se (tetanic, 80 Hz, stimulation), and the ratio between individual twitch peaks (12 Hz stimulation). […]

[3] = test system: isolated rat soleus muscles; experiment: Recovery of nerve-stimulated force in isolated rat soleus muscles exposed to sub-maximal tubocurarine; conditions: Rattus norvegicus, 40 min; read-out: 50 μM % change after addition
Method: Experiments were performed using rat soleus muscles from either young (4-wk-old) or adult Wistar rats (12-14-week-old). Animal handling, killing and isolation of muscle is described elsewhere All experiments were performed using normal Krebs-Ringer bicarbonate solution (NKR). In solutions with elevated Mg^2+, MgCl2 was added to NKR-solution causing minor increases in osmolarity and ionic strength. In solutions with elevated K^+, 4 mM NaCl was replaced by 4 mM KCl in the NKR.
In all contraction experiments, isometric force production was determined and force produced during contractions was quantified by measuring the integral of the force response (AUC). Stimulation and force recordings have been described elsewhere. […] In these latter experiments, extracellular recordings of action potentials (M-waves) could be measured without temporal overlap with stimulation artefacts.
The aim was to find compounds that by inhibition of CIC-1 channels can recover nerve-stimulated force under conditions of fatigue including conditions where fatigue is caused by compromised neuromuscular transmission. Neuromuscular transmission dysfunction can develop because of both pre- and/or post-synaptic complications in connection with a disorder or as part of neuromuscular blockade during/after surgery. In the initial series of drug testing, experiments were performed with isolated muscles in the presence of sub-maximal ACh receptor antagonist tubocurarine. Since the inclusion of tubocurarine caused a partial loss of neuromuscular transmission this experiment mimics the conditions in myasthenia gravis and neuromuscular blockade. To mimic conditions with pre-synaptic complication (Lambert Eaton syndrome, motor neuron disorder, polyneuropathy) the intact nerve-muscle preparations were incubated at elevated extracellular Mg^2+, which is known to suppress release of ACh from nerve terminals of motor neurons.
To identify CIC-1 inhibitors that could be used for treatment of neuromuscular disorders we repeated the experiment shown in FIG. 2A but instead of adding 9-AC we added the compounds of interest in different concentrations within the range from 10 to 500 μM. […] For comparison with the muscle only exposed to tubocurarine (grey trace), the two traces have been overlaid. […] For comparison, muscles only exposed to tubocurarine have been included. The dotted line indicates the recovery of force with C8 when compared to the force production before its addition. This value was used in Table 1 for evaluation of the efficacy of the different compounds in recovering force.

[4] = molecular target: T2, CIC-1 ion channels (Rattus norvegicus, UniProt P35524); experiment: Resting membrane conductance (Gm), three-electrode technique, rat muscle: Kd for CIC-1 inhibition; assay type: cell-based; conditions: concentration that reduced Gm by 50%
T2 construct: from tissue; host or cells: soleus muscle of adult (12-14 week old) Wistar rats
T2 sequence (P35524 1-994): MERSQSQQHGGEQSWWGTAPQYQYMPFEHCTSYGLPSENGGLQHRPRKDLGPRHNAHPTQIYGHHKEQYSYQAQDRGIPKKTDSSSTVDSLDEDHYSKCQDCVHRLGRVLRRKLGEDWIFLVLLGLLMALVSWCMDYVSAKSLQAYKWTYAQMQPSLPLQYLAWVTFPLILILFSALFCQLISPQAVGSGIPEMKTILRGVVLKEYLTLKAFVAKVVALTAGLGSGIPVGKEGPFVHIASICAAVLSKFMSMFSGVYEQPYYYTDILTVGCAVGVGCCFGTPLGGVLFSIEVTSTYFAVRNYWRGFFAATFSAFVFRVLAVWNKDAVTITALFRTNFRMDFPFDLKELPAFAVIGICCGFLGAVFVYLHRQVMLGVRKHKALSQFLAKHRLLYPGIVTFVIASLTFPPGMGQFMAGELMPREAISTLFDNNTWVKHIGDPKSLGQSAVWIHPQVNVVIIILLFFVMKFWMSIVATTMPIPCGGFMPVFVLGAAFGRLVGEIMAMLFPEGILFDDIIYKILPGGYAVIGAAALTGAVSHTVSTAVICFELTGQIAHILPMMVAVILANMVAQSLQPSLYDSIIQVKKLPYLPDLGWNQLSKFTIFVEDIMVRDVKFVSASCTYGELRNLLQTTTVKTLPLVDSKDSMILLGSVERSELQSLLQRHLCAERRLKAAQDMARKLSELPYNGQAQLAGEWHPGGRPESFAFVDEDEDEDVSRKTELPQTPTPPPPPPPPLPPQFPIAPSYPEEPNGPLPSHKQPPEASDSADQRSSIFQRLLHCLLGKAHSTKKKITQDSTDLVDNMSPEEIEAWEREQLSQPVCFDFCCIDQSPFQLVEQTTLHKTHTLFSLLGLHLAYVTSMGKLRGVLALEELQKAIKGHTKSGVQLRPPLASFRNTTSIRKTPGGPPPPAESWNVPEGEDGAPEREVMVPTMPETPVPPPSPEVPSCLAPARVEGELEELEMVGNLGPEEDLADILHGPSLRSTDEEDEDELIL

ΔV½ [1]	Kd [4]	Compound	change in twitch peaks [2]	activation at 50 µM [3]
9.2 mV	–	C[C@H](Oc1ccc(Br)cc1C1CC1)C(=O)O [Compound A-2, (2S)-2-(4-bromo-2-cyclopropylphenoxy)propanoic acid]	no significant change	–
–	4.1 µM	CC(C)[C@H](Oc1ccc(Br)cc1)C(=O)O [Compound C22, (2S)-2-(4-bromophenoxy)-3methylbutanoic acid]	–	16%
